Here are results for 20 compounds from ChEMBL document CHEMBL1208740, “beta-Secretase (BACE-1) inhibitory effect of biflavonoids” (Bioorg Med Chem Lett, 2010).

The structures appear in SMILES notation.

Beta-secretase 1, sequence (P56817 whole entry): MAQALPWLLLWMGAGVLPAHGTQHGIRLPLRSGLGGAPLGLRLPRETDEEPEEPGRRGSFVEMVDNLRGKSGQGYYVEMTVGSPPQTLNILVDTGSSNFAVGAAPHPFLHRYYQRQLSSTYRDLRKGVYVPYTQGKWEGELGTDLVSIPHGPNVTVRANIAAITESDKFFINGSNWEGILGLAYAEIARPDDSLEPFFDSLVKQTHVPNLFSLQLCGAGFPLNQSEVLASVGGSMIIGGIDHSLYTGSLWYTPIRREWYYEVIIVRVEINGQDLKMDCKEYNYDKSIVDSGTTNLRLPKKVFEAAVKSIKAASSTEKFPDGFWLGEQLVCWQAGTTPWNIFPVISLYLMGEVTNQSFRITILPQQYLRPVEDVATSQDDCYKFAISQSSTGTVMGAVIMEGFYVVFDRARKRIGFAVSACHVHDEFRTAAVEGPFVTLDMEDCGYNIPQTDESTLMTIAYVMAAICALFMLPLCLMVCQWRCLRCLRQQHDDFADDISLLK

The assay has as its target Beta-secretase 1 (Homo sapiens, UniProt P56817). Briefly: Inhibition of BACE1 after 60 mins by FRET assay.
As for `COc1ccc(-c2cc(=O)c3c(O)cc(OC)c(-c4cc(-c5cc(=O)c6c(O)cc(O)cc6o5)ccc4OC)c3o2)cc1` [KAYAFLAVONE], the IC50 is > 10 µM.
Turning to `O=c1cc(-c2ccc(O)c(-c3c(O)cc4oc(-c5ccc(O)cc5)cc(=O)c4c3O)c2)oc2cc(O)cc(O)c12` [ROBUSTAFLAVONE], the IC50 is > 10 µM.
Then `COc1ccc(-c2cc(=O)c3c(O)cc(O)cc3o2)cc1-c1c(O)cc(O)c2c(=O)cc(-c3ccc(O)cc3)oc12` [BILOBETIN], with 2.02 µM.
On to `COc1ccc(-c2cc(=O)c3c(O)cc(OC)c(-c4cc(-c5cc(=O)c6c(O)cc(O)cc6o5)ccc4O)c3o2)cc1` [7'',4'''-dimethylamentoflavone], for which the IC50 is > 10 µM.
As for `O=c1cc(-c2ccc(Oc3c(O)cc4oc(-c5ccc(O)cc5)cc(=O)c4c3O)cc2)oc2cc(O)cc(O)c12` [HINOKIFLAVONE], the IC50 is > 10 µM.
Then `COc1cc(O)c2c(=O)cc(-c3ccc(O)cc3)oc2c1-c1cc(-c2cc(=O)c3c(O)cc(O)cc3o2)ccc1O` [SOTETSUFLAVONE], with 1.58 µM.
The figure for `COc1ccc(-c2cc(=O)c3c(O)cc(O)c(-c4cc(-c5cc(=O)c6c(O)cc(OC)cc6o5)ccc4O)c3o2)cc1` [PODOCARPUSFLAVONE B] is 4.21 µM; for `COc1cc(O)c2c(=O)cc(-c3ccc(O)c(-c4c(OC)cc(O)c5c(=O)cc(-c6ccc(O)cc6)oc45)c3)oc2c1` it is 6.25 µM.
The figure for `COc1ccc(-c2cc(=O)c3c(O)cc(OC)c(-c4cc(-c5cc(=O)c6c(O)cc(OC)cc6o5)ccc4OC)c3o2)cc1` is > 10 µM; for `COc1ccc(-c2cc(=O)c3c(O)cc(OC)c(-c4cc(-c5cc(=O)c6c(O)cc(OC)cc6o5)ccc4O)c3o2)cc1` [HEVEAFLAVONE] it is > 10 µM.
For `COc1cc(O)c2c(=O)cc(-c3ccc(OC)c(-c4c(OC)cc(O)c5c(=O)cc(-c6ccc(O)cc6)oc45)c3)oc2c1`, the IC50 is > 10 µM.
For the compound `COc1ccc(-c2cc(=O)c3c(O)cc(O)c(-c4cc(-c5cc(=O)c6c(O)cc(O)cc6o5)ccc4OC)c3o2)cc1` [ISOGINKGETIN], the midpoint of inhibition, the IC50, lay at 3.01 µM.
The figure for `O=c1cc(-c2ccc(O)c(-c3c(O)cc(O)c4c(=O)cc(-c5ccc(O)cc5)oc34)c2)oc2cc(O)cc(O)c12` [AMENTOFLAVONE] is 1.54 µM; for `COc1cc(O)c2c(=O)cc(-c3ccc(OC)c(-c4c(O)cc(O)c5c(=O)cc(-c6ccc(O)cc6)oc45)c3)oc2c1` [GINKGETIN] it is 4.18 µM.
The figure for `COc1ccc(-c2cc(=O)c3c(O)cc(O)cc3o2)cc1-c1c(OC)cc(O)c2c(=O)cc(-c3ccc(O)cc3)oc12` is > 10 µM; for `O=c1cc(-c2ccc(O)cc2)oc2c(-c3c(O)cc(O)c4c(=O)cc(-c5ccc(O)cc5)oc34)c(O)cc(O)c12` [CUPRESSUFLAVONE] it is > 10 µM.
Then `COc1ccc(-c2cc(=O)c3c(O)cc(O)c(-c4cc(-c5cc(=O)c6c(O)cc(O)cc6o5)ccc4O)c3o2)cc1` [PODOCARPUSFLAVONE A], with 0.99 µM; and `COc1cc(O)c2c(=O)cc(-c3ccc(O)c(-c4c(O)cc(O)c5c(=O)cc(-c6ccc(O)cc6)oc45)c3)oc2c1` [SEQUOIAFLAVONE], with 1.4 µM.
For `COc1ccc(-c2cc(=O)c3c(O)cc(O)c(-c4cc(-c5cc(=O)c6c(O)cc(OC)cc6o5)ccc4OC)c3o2)cc1` [SCIADOPITISIN], the IC50 was > 10 µM.
Then `COc1ccc([C@@H]2CC(=O)c3c(cc(OC)c(C)c3O)O2)cc1-c1c(O)cc(O)c2c(=O)cc(-c3ccc(O)cc3)oc12`, with 0.35 µM.
